Reference: publication PMC11783601, “Analogue-Sensitive Inhibition of Histone Demethylases Uncovers Member-Specific Function in Ribosomal Protein Synthesis” (Journal of the American Chemical Society, 2025)
Values joined by “and” are separate entries in the source; they are usually repeats but may differ in a detail not shown here. Identical values can stand only once.

Biological target: T1, KDM4A F185A (asKDM4A) in HEK293T cells (Homo sapiens, UniProt O75164, F185A)
T1 construct: we generated the F185A mutation in full-length KDM4A carrying all of the functional domains; host or cells: HEK293T
T1 sequence (O75164 1-1064 F185A): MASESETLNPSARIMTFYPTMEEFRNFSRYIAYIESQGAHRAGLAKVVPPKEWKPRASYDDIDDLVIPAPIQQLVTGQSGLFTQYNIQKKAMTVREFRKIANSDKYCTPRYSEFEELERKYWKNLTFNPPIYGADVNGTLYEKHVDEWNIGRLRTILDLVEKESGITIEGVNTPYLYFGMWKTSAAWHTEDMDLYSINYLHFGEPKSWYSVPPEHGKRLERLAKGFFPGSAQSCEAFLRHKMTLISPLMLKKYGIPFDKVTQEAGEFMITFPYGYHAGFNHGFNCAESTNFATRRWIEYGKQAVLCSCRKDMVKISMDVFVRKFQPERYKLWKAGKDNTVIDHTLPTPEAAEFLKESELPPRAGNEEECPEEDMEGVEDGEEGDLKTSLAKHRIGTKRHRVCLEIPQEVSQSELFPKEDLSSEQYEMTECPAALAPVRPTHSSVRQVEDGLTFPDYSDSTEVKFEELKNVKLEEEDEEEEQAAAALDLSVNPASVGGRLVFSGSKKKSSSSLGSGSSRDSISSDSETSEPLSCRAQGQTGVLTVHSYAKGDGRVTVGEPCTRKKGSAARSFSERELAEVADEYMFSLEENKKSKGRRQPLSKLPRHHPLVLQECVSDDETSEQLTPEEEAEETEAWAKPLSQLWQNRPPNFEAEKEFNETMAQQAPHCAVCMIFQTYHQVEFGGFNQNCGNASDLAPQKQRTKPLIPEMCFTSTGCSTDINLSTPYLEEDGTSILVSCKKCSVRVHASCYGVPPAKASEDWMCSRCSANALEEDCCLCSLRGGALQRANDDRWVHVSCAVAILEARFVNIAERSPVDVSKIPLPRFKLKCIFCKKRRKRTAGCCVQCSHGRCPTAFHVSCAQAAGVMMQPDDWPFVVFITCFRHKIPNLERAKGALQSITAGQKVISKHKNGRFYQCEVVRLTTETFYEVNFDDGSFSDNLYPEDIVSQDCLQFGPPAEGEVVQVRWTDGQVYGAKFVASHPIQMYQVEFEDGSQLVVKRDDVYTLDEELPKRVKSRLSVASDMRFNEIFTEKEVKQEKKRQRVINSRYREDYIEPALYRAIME
Assay: Histone extraction, digestion and tandem mass spectrometry (relative abundance of histone modifications)
Type: cell-based
Protocol: HEK293T cells were transiently transfected with asKDM4A and treated with varying concentrations of 6A or 6B. […] To further confirm the activity of the enzyme–inhibitor pair, we performed tandem mass spectrometry of tryptic histones isolated from HEK293T cells expressing asKDM4A in the presence or absence of 100 μM 6A. […]
22. Histone extraction, digestion and tandem mass spectrometry
HEK 293-T cells (ATCC CRL-1573) were plated into 6-well plates (Corning) in DMEM (Corning) supplemented with 10% FBS (Corning) and 1X Antibiotic/Antimycin
(Penicillin/Streptomycin/Fungiozone) (Cytiva HyClone) in an incubator held at 37 °C with 5%
CO2. At 75% confluency, cells were transfected with 2.5 µg KDM4A F185A or Empty Vector with 5µg Thermo Turbofect (FERR0531). After 4 hours, the media was washed and 200 µM of 6A or equivalent volume of DMSO was added and left to incubate at 37 °C for 24 hours. Cells were then washed with 1X PBS (Corning) followed by trypsinization (Gibco TrypLE™ Express Enzyme). Collected cells were centrifuged at 3000xg for 3 minutes, followed by washing with 1X PBS and centrifuged for an additional 3000xg for 3 minutes. Histone proteins were extracted from the pellet as described by25 to ensure good-quality identification and quantification of single histone marks. Briefly, cell pellets were dissolved in 100 µL of cold 0.2 M H2SO4 and incubated for 2 hours rotating in a cold room (4 °C). Aliquots were then centrifuged at 3400xg for 5 minutes […]
at 4 °C and the supernatant was added to a fresh tube. 100% cold TCA was then added to a final volume of 33% volume/volume TCA/supernatant and left to incubate for 1 hour in a cold room (4 °C). Samples were then centrifuged at 3400xg for 5 min at 4 °C and the supernatant was discarded. The precipitate was then washed with cold acetone/0.1% HCl and centrifuged at 3400xg for 5 minutes at 4 °C. The supernatant was discarded, and the precipitate was washed with cold acetone and centrifuged at 3400xg for 5 minutes at 4 °C. The supernatant was discarded, and the pellet was dried using a vacuum centrifuge.
The pellet was dissolved in 50 mM ammonium bicarbonate, pH 8.0, and histones were subjected to derivatization using 5 µL of propionic anhydride and 14 µL of ammonium hydroxide (all Sigma Aldrich) to balance the pH at 8.0. The mixture was incubated for 15 min and the procedure was repeated. Histones were then digested with 1 µg of sequencing grade trypsin (Promega) diluted in 50mM ammonium bicarbonate (1:20, enzyme:sample) overnight at room temperature.
Derivatization reaction was repeated to derivatize peptide N-termini. The samples were dried in a […]
Sample desalting: Prior to mass spectrometry analysis, samples were desalted using a 96-well plate filter (Orochem) packed with 1 mg of Oasis HLB C-18 resin (Waters). Briefly, the samples were resuspended in 100 µl of 0.1% TFA and loaded onto the HLB resin, which was previously equilibrated using 100 µl of the same buffer. After washing with 100 µl of 0.1% TFA, the samples were eluted with a buffer containing 70 µl of 60% acetonitrile and 0.1% TFA and then dried in a […]
LC-MS/MS Acquisition and Analysis: Samples were resuspended in 10 µl of 0.1% TFA and loaded onto a Dionex RSLC […] (Thermo Scientific), coupled online with an Orbitrap Fusion Lumos (Thermo Scientific). Chromatographic separation was performed with a two-column system, consisting of a C-18 trap cartridge (300 µm ID, 5 mm length) and a picofrit analytical column (75 µm ID, 25 cm length) packed in-house with reversed-phase Repro-Sil Pur C18-AQ 3 µm resin. Peptides were separated using a 30 min gradient from 1-30% buffer B (buffer A: 0.1% formic acid, buffer B: 80% acetonitrile + 0.1% formic acid) at a flow rate of 300 nl/min.
The mass spectrometer was set to acquire spectra in a data-independent acquisition (DIA) mode.

[1] = 6A-treated samples, replicates _1 and _2
[2] = H1 variant peptide, samples 6A_1, 6A_2
[3] = HEK293T cells expressing asKDM4A, 100 μM 6A, LC-MS/MS, n = 2
[4] = HEK293T cells, KDM4A F185A + 6A, replicates 6A_1 and 6A_2

SMILES: CCCCCCCCOC(=O)C(=O)NC(CC(C)C)C(=O)O [6A, L-Leu octyl-ester NOG]
- Single marks H3K4ac [1]: 1e-6 and 0.002004
- Single marks H3K4me1 [1]: 0.1039 and 0.09374
- Single marks H3K4me2 [1]: 0.002434 and 0.008819
- Single marks H3K4me3 [1]: 9e-6 and 0.003387
- Single marks H3K9ac [1]: 0.003245 and 0.006938
- Single marks H3K9me1 [1]: 0.2368 and 0.08817
- Single marks H3K9me2 [1]: 0.4213 and 0.4856
- Single marks H3K9me3 [1]: 0.1855
- Single marks H3K14ac [1]: 0.4176 and 0.5798
- Single marks H3K18ac [1]: 0.008957 and 0.006562
- Single marks H3K18me1 [1]: 0 and 1.2e-5
- Single marks H3K23ac [1]: 0.5125 and 0.4435
- Single marks H3K23me1 [1]: 0 and 5e-6
- Single marks H3K56ac [1]: 0
- Single marks H3K56me1 [1]: 0 and 0.9736
- Single marks H3K56me2 [1]: 0
- Single marks H3K56me3 [1]: 0
- Single marks H3K79ac [1]: 0
- Single marks H3K79me1 [1]: 0.3484 and 0.03322
- Single marks H3K79me2 [1]: 0.33 and 0.01715
- Single marks H3K79me3 [1]: 0.04582 and 0
- Single marks H3K122ac [1]: 0.5896 and 0
- Single marks H3S10ph [1]: 0.08584 and 0.005059
- Single marks H4K5ac [1]: 0.04104 and 0.1648
- Single marks H4K8ac [1]: 0.05131 and 0.1596
- Single marks H4K12ac [1]: 0.09119 and 0.2668
- Single marks H4K16ac [1]: 0.3167 and 0.492
- Single marks H4K20ac [1]: 0.00298 and 0.01255
- Single marks H4K20me1 [1]: 0.4844 and 0.3612
- Single marks H4K20me2 [1]: 0.1012 and 0.2416
- Single marks H4K20me3 [1]: 0.03481 and 0.03641
- Single marks H31K27ac [1]: 0.000296 and 0
- Single marks H31K27me1 [1]: 0.18 and 0.1869
- Single marks H31K27me2 [1]: 0.4707 and 0.5161
- Single marks H31K27me3 [1]: 0.189 and 0.1409
- Single marks H31K36me1 [1]: 0.204 and 0.1649
- Single marks H31K36me2 [1]: 0.3714 and 0.4932
- Single marks H31K36me3 [1]: 0.07097 and 0.06279
- Single marks H33K27ac [1]: 6.9e-5 and 0
- Single marks H33K27me1 [1]: 0.2147 and 0.2058
- Single marks H33K27me2 [1]: 0.4693 and 0.4746
- Single marks H33K27me3 [1]: 0.1187 and 0.09838
- Single marks H33K36me1 [1]: 0.2345 and 0.1564
- Single marks H33K36me2 [1]: 0.4525 and 0.5384
- Single marks H33K36me3 [1]: 0.03679 and 0.06963
- Relative abundance, H1_1_35 H11.SETAPVAQAASTATEKPAAAKKTKKPAKAAAPR [2]: 0.0%
- Relative abundance, H1_1_35 H13.SETAPAAPAAPAPVEKTPVKKKAKKTGAAAGKR [2]: 0.0%
- Relative abundance, H1_1_35 H15.SETAPAETAAPAPVEKSPAKKKTTKKAGAAKR [2]: 0.0%
- Relative abundance, H1_54_81 H1v234.SGVSLAALKKALAAAGYDVEKNNSR [2]: 100.0% and 65.9%
- Relative abundance, H1_54_81 H11.SGVSLAALKKSLAAAGYDVEKNNSR [2]: 0.0%
- Relative abundance, H1_54_81 H15.GGVSLPALKKALAAGGYDVEKNNSR [2]: 0.0%
- relative abundance of other key histone methylation and acetylation sites (HEK293T cells expressing asKDM4A, 100 μM 6A, LC-MS/MS): remained unaffected
- relative abundance of H3K9me3 [3]: recovered to the level of the control vector
- relative abundance of H3K36me3 [3]: recovered to the level of the control vector
- Relative abundance AKAKSR(H2A3_12_17) (peptide total) [4]: 100.0%
- Relative abundance AKAKTR(H2A1_12_17) (peptide total) [4]: 100.0%
- Relative abundance DNKKTR(H2A1_72_77) (peptide total) [4]: 100.0%
- Relative abundance H2A1_12_17 K13ac [4]: 0.0152% and 0.527%
- Relative abundance H2A1_12_17 K13acK15ac [4]: 0.0603% and 0.3%
- Relative abundance H2A1_12_17 K13me1 [4]: 1.8% and 5.0%
- Relative abundance H2A1_12_17 K15ac [4]: 15.2% and 32.5%
- Relative abundance H2A1_12_17 K15me1 [4]: 4.8% and 11.0%
- Relative abundance H2A1_12_17 unmod [4]: 78.1% and 50.7%
- Relative abundance H2A1_72_77 K74ac [4]: 0.0186% and 0.272%
- Relative abundance H2A1_72_77 unmod [4]: 100.0% and 99.7%
- Relative abundance H2A3_12_17 K13ac [4]: 0.023% and 0.0778%
- Relative abundance H2A3_12_17 K13acK15ac [4]: 0.0187% and 0.4%
- Relative abundance H2A3_12_17 K13me1 [4]: 11.1% and 15.7%
- Relative abundance H2A3_12_17 K15ac [4]: 0.0415% and 0.131%
- Relative abundance H2A3_12_17 K15me1 [4]: 72.5% and 57.2%
- Relative abundance H2A3_12_17 unmod [4]: 16.3% and 26.5%
- Relative abundance H2AZ_1_19 K4acK7acK11ac [4]: 0.0%
- Relative abundance H2AZ_1_19 K4acK7acK11acK15ac [4]: 1.0% and 0.641%
- Relative abundance H2A_1_88 H2A14s.HLQLAIR [4]: 85.1% and 95.1%
- Relative abundance H2A_1_88 H2AX.GKTGGKAR [4]: 1.9% and 1.0%
- Relative abundance H2A_1_88 H2AZ.AGGKAGKDSGKAKTKAVSR [4]: 13.0% and 3.9%
